Test results from ChEMBL document CHEMBL1201862, “PubChem BioAssay data set” (2004).
Several values for one entry are separate records, joined by “and”; a condition that tells them apart may be missing. Equal entries are not always repeated. Activity calls are given as the source filed them.

Columns and labels:
Cytochrome P450 2D6 = Cytochrome P450 2D6 (Homo sapiens, UniProt P10635);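 note: CYP2D6 member of a cytochrome P450 panel assay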
Cytochrome P450 3A4 = Cytochrome P450 3A4 (Homo sapiens, UniProt P08684);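 note: CYP3A4 tested as one member of a cytochrome P450 panel screen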
Chain of Cytochrome P450 3A4 (P08684 whole entry): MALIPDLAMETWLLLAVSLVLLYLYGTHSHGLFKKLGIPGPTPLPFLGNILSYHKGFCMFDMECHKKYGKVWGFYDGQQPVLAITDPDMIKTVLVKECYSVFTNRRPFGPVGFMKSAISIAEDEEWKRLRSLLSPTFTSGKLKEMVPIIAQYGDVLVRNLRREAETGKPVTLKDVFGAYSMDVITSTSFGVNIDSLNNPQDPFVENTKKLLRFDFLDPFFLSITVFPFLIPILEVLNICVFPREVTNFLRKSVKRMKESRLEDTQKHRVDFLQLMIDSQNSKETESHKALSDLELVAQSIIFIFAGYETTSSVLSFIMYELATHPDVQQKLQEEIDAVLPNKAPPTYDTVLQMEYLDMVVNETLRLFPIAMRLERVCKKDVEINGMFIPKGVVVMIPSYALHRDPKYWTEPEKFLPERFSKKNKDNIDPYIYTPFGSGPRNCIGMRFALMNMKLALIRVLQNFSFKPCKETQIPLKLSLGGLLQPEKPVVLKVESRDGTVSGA

[1] = target: T1, Replicative DNA helicase DnaB (Mycobacterium tuberculosis, UniProt P9WMR3); assay: DnaB intein splicing inhibitors, dose response, biochemical, cell-free fluorescence (AID 449749); format: functional
T1 sequence (P9WMR3 whole entry): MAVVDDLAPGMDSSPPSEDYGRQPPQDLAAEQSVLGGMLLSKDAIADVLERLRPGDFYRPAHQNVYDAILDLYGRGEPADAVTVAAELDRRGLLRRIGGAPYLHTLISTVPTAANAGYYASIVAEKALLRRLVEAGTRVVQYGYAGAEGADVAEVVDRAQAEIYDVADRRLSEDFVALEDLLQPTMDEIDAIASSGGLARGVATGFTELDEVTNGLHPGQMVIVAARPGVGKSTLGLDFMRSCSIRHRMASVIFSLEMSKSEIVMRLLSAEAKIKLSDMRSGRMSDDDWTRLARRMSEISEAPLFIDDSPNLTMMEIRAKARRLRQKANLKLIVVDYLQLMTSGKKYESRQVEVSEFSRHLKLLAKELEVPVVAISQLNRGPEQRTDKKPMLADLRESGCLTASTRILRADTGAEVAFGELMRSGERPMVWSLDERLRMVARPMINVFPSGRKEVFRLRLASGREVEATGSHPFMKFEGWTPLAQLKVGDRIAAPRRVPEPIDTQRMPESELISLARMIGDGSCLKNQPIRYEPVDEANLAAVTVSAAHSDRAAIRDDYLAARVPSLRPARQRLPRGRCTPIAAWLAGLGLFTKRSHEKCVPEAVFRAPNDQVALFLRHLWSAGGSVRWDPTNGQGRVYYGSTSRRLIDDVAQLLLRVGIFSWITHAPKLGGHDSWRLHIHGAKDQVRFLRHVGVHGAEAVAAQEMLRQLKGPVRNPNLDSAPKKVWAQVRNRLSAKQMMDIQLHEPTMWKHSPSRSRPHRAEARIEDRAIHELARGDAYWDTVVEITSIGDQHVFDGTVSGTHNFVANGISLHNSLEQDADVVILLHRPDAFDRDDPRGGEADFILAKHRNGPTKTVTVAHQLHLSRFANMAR

Protein RecA = target: T2, Protein RecA (Mycobacterium tuberculosis, UniProt P9WHJ3); assay: Fluorescence Cell-Free Homogeneous Dose Retest to Identify Inhibitors of RecA-Intein Splicing Activity. [Related pubchem assays (depositor defined):AID2097, AID2223, AID489010, AID492950]; format: functional
T2 sequence (P9WHJ3 whole entry): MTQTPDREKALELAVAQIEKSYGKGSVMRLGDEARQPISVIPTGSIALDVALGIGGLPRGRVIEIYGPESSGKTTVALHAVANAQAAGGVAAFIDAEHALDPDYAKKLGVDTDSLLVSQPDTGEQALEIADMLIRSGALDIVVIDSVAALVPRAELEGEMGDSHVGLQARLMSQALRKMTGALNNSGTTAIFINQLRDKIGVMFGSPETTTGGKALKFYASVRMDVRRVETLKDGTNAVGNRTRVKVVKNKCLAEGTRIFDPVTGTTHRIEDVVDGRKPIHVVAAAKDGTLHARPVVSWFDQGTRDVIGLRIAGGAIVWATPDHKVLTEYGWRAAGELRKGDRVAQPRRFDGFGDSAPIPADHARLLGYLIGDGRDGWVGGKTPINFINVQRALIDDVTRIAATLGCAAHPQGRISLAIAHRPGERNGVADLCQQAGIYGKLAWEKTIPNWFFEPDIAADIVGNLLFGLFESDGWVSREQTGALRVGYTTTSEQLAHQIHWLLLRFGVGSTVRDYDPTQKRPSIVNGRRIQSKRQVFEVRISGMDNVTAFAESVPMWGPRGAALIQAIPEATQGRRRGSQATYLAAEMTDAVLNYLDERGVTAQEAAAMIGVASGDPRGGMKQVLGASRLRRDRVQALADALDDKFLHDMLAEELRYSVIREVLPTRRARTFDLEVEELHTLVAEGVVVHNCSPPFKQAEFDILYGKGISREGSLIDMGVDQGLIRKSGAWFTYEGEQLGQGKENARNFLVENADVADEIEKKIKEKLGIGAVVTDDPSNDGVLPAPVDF

Cytochrome P450 1A2 = target: T3, Cytochrome P450 1A2 (Homo sapiens, UniProt P05177);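 note: PubChem cytochrome P450 panel assay, CYP1A2 panel member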
T3 sequence (P05177 whole entry): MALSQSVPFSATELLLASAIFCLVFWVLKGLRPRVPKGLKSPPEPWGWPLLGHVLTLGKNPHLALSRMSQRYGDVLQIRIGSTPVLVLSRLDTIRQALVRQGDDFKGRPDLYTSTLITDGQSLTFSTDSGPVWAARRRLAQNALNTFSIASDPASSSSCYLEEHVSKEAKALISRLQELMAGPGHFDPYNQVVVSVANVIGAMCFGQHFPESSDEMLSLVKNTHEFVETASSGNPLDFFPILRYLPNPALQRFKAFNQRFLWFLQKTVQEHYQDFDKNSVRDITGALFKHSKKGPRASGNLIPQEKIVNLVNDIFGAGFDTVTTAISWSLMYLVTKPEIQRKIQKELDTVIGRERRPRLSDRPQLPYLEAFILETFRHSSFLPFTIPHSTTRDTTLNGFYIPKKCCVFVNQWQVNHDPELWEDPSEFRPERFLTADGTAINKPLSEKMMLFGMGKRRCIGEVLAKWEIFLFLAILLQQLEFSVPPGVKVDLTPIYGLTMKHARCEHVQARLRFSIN

Cytochrome P450 2C9 = Cytochrome P450 2C9 (Homo sapiens, UniProt P11712)
Chain of Cytochrome P450 2C9 (P11712 whole entry): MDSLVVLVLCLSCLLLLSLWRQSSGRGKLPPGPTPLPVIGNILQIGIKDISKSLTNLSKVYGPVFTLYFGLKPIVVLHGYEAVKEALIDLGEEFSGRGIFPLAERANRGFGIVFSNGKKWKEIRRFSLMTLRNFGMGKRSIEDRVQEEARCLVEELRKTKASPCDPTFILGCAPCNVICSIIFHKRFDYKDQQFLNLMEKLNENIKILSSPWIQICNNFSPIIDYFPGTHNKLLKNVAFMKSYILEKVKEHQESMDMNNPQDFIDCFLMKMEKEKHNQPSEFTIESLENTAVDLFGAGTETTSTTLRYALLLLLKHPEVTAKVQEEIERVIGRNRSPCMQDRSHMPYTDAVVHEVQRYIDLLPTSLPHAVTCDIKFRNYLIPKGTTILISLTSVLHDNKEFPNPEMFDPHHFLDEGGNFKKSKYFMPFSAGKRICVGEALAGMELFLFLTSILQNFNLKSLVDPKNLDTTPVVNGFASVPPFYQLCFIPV

[2] = viability of uninfected HEp-2 cells – cell-based, HTS, cytotoxicity control for RSV inhibitor project, dose response (AID 2410); format: functional; conditions: human respiratory syncytial virus
[3] = Luminescence Cell-Based Dose Retest to Confirm Inhibitors of Cancer Stem Cells. [Related pubchem assays (depositor defined):AID2717, AID2721]; format: functional; conditions: Homo sapiens
Streptokinase A = target: T4, Streptokinase A (Streptococcus pyogenes serotype M1, UniProt P10520); assay: viability-normalized secreted streptokinase activity reduction – plasminogen activation absorbance, OD405, dose response (AID 1914); format: functional, Streptococcus pyogenes M1 GAS;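 note: secreted streptokinase activity via plasminogen activation per viability signal from cell pellet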
T4 sequence (P10520 whole entry): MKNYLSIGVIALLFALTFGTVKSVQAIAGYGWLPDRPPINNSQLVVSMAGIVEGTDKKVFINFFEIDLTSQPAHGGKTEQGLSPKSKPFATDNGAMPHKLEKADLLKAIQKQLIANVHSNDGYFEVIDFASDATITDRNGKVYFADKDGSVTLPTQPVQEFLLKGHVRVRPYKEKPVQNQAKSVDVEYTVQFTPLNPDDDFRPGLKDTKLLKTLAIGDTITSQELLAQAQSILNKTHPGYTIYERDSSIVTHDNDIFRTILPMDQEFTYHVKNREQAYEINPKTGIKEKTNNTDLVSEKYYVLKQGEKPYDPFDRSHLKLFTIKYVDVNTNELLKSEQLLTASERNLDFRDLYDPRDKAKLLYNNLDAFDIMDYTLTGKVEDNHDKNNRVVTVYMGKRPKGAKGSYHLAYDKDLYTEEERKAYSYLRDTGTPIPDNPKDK

Chain of Cytochrome P450 2D6 (P10635 whole entry): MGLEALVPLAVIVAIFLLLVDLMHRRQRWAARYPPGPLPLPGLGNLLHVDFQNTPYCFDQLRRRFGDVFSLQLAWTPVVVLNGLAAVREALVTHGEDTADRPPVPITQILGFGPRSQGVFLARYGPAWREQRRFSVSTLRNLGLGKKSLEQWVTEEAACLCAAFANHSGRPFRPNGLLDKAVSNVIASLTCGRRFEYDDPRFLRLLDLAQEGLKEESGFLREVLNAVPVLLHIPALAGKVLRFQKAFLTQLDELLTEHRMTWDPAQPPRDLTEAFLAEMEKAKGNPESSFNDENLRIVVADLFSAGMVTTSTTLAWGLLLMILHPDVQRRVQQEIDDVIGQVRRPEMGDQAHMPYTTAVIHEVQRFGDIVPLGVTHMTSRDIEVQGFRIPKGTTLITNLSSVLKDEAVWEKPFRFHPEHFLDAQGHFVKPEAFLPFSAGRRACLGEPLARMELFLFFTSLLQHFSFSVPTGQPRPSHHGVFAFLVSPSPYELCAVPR

## O=C1Nc2ccccc2C1=Nc1sc2c(c1C(=O)NCCc1ccccc1)CCCC2
Cytochrome P450 2D6
  AC50: 4.47 µM (inconclusive)

## C[C@H](C(=O)c1ccccc1)[C@@H](c1ccccc1)N1CCOCC1
Cytochrome P450 3A4
  AC50: 0.501 µM (inconclusive)

## Cc1nn(-c2ccccc2)c2c1C(c1ccc(F)cc1)C(C#N)=C(N)O2 (configuration not stated)
[1]
  AC50: 3.55 µM (active)
Protein RecA
  EC50: 2.93 µM (active)

## CC(=O)C1=C(O)[C@@H]2[C@@H]3c4c[nH]c5cccc(c45)C[C@@H]3C(C)(C)N2C1=O
Cytochrome P450 1A2
  AC50: 12.6 µM (inconclusive)
Cytochrome P450 2D6
  AC50: 39.8 µM (inconclusive)
Cytochrome P450 3A4
  AC50: 10 µM (inconclusive)

## COc1ccc(Oc2ncc3nc(-c4cccc(C#N)c4)c(=O)n(CCC#N)c3n2)cc1
Cytochrome P450 1A2
  AC50: 25.1 µM (inconclusive)
Cytochrome P450 2C9
  AC50: 25.1 µM (inconclusive)

## Cc1ccc(Nc2nc(Cl)c(C=O)s2)cc1Cl
[2]
  CC50: 19.2 µM (active)

## Cc1onc(-c2c(Cl)cccc2Cl)c1C(=O)Nc1ccc2c(c1)OCO2
Cytochrome P450 3A4
  AC50: 1 µM (inconclusive)

## Nc1nc(Cl)cc(N2CCOCC2)n1
Cytochrome P450 1A2
  AC50: 15.8 µM (inconclusive)
Cytochrome P450 2D6
  AC50: 39.8 µM (inconclusive)

## COC(=O)C1C(=O)C2=C(CC1C)NC(=O)CC2c1cccc(C)c1 (configuration not stated)
[3]
  AC50: > 195 µM (inactive)
Cytochrome P450 2C9
  AC50: 15.8 µM (inconclusive)

## COc1ccc(CNC(=O)Cc2csc(Nc3nc(S)nc4ccccc34)n2)cc1
Cytochrome P450 2D6
  AC50: 0.447 µM (inconclusive)

## NC(=O)CNC(=O)[C@@H]1CC2(CC(c3cccc([N+](=O)[O-])c3)=NO2)CN1C(=O)c1ccccc1 (some centres not stated)
Cytochrome P450 2D6
  AC50: 31.6 µM (inconclusive)
Cytochrome P450 2C9
  AC50: 0.708 µM (inconclusive)

## COc1ccc(NC(=O)CSc2nc3cc[nH]cc-3n2)c(OC)c1
[2]
  CC50: 33.1 µM (active)

## N#Cc1cccc(-c2ccc3ncnc(NCc4ccccc4)c3c2)c1
Cytochrome P450 2D6
  AC50: 10 µM (inconclusive)
Cytochrome P450 2C9
  AC50: 0.631 µM (inconclusive)
Cytochrome P450 3A4
  AC50: 15.8 µM (inconclusive)

## Cc1noc(C)c1-c1ccc2ncnc(NCCN3CCOCC3)c2c1
Cytochrome P450 2D6
  AC50: 31.6 µM (inconclusive)

## COc1ccc2c(c1)c(=O)oc1c(C)c(OCC(=O)N3CCc4ccccc4C3)ccc12
Cytochrome P450 3A4
  AC50: 3.16 µM (inconclusive)

## N=C(NOC(=O)Cc1ccc(Cl)cc1)c1cccnc1
Cytochrome P450 2D6
  AC50: 6.31 µM (inconclusive)
Cytochrome P450 2C9
  AC50: 12.6 µM (inconclusive)

## CNc1ncncc1-c1ccccc1C
Cytochrome P450 1A2
  AC50: 12.6 µM (inconclusive)
Cytochrome P450 2D6
  AC50: 31.6 µM (inconclusive)

## COc1ccc(OC)c(N2C(=O)C(Cl)=C(N3CCCCC3)C2=O)c1
[1]
  AC50: 11.8 µM (active)
Protein RecA
  EC50: 4.67 µM (active)

## Cc1ccc(NC(=O)CN2C(=O)NC(C)(c3ccc(Cl)cc3)C2=O)c(Br)c1 (configuration not stated)
[2]
  CC50: 30.1 µM (active)

## O=[N+]([O-])c1ccc(N2CCN(Cc3ccccc3)CC2)c(S(=O)(=O)N2CCOCC2)c1
Cytochrome P450 3A4
  AC50: 12.6 µM (inconclusive)

## Cc1nn(Cc2ccc([N+](=O)[O-])cc2)c(=O)n1-c1cccc(F)c1
Cytochrome P450 1A2
  AC50: 17.8 µM (inconclusive)
Cytochrome P450 2D6
  AC50: 25.1 µM (inconclusive)

## Cc1n[nH]c2c1C(c1ccsc1C)C(C#N)=C(N)O2 (configuration not stated)
[1]
  AC50: 10.1 µM (active)
Protein RecA
  EC50: 3.77 µM (active)

## O=C1c2[nH]nc(-c3ccccc3O)c2C(c2cccc(Cl)c2)N1Cc1ccco1 (configuration not stated)
[1]
  AC50: 66.5 µM (active)
Protein RecA
  EC50: > 380 µM (inconclusive)
Streptokinase A
  EC50: 15.8 µM (active)

## Cc1ccc(-n2nnc3c(SCC(=O)NCC4CCCO4)ncnc32)cc1 (configuration not stated)
[1]
  AC50: 4.72 µM (active)
Protein RecA
  EC50: 4.23 µM (active)

## COc1ccc(Oc2ncc3nc(CCc4ccccc4)c(=O)n(C)c3n2)cc1
Cytochrome P450 3A4
  AC50: 7.94 µM (inconclusive)

## CC12CC(NC(=O)N1c1cccc(C(=O)NCc3ccccc3)c1)c1ccccc1O2 (configuration not stated)
Cytochrome P450 1A2
  AC50: 25.1 µM (inconclusive)
Cytochrome P450 2D6
  AC50: 28.2 µM (inconclusive)

## O=C(CCl)Nc1ccc(N=Nc2ccccc2)cc1
[1]
  AC50: 6.81 µM (active)
Protein RecA
  EC50: 2.18 µM (active)

## CCN(CC)C1=NC(=[N+](CC)CC)c2ccccc21
Cytochrome P450 2D6
  AC50: 14.1 µM (inconclusive)

## CCOc1c2ccc(C(=O)NCc3ccc4c(c3)OCO4)cc2nn1CC
Cytochrome P450 1A2
  AC50: 8.91 µM (inconclusive)
Cytochrome P450 2D6
  AC50: 15.8 µM (inconclusive)

## Cc1n[nH]c2c1C(c1cccc(OC(=O)N3CCOCC3)c1)C(C#N)=C(N)O2 (configuration not stated)
[1]
  AC50: 31.2 µM (active)
Protein RecA
  EC50: 7.44 µM (active)

## CSc1ccc2nnc(-c3cccc(F)c3)n2n1
Cytochrome P450 2C9
  AC50: 39.8 µM (inconclusive)

## CCc1cc2c(c(CC)n1)CCC(=O)N2Cc1ccc(-c2ccccc2-c2nnn[nH]2)cc1
Cytochrome P450 2D6
  AC50: 10 µM (inconclusive)
Cytochrome P450 2C9
  AC50: 25.1 µM (inconclusive)
Cytochrome P450 3A4
  AC50: 20 µM (inconclusive)

## COc1ccccc1-c1cc(NCc2cccs2)ncn1
Cytochrome P450 3A4
  AC50: 31.6 µM (inconclusive)

## COc1ccc(C2C(C#N)=C(N)Oc3[nH]nc(C)c32)cc1Cn1nnc2ccccc21 (configuration not stated)
[1]
  AC50: 7.76 µM (active)
Protein RecA
  EC50: 3.87 µM (active)

## CCOC(=O)CN1C(=O)N[C@@H](c2cccc(C(F)(F)F)c2)C(C(C)=O)=C1C
[1]
  AC50: > 380 µM (inactive)
Protein RecA
  EC50: > 380 µM (inactive)

## O=S(=O)(c1ccc(F)cc1)N1CCCC(CO)C1 (configuration not stated)
Cytochrome P450 3A4
  AC50: 25.1 µM (inconclusive)

## CCN(CC)S(=O)(=O)c1ccc(OC)c(NC(=O)CSc2ccccc2)c1
Cytochrome P450 3A4
  AC50: 31.6 µM (inconclusive)

## N#CCCn1[nH]c(-c2ccccc2)cc1=O
[1]
  AC50: 5.47 µM (active)
Protein RecA
  EC50: 3.32 µM (active)

## CCC(CC)C(=O)Nc1cccc(/C(C)=N/NC(=O)c2c(Br)cnn2C)c1
Cytochrome P450 1A2
  AC50: 12.6 µM (inconclusive)
Cytochrome P450 2C9
  AC50: 8.91 µM (inconclusive)

## CN(C)CCC[C@@]1(c2ccc(F)cc2)OCc2cc(C#N)ccc21 [ESCITALOPRAM]
Cytochrome P450 2D6
  AC50: 39.8 µM (inconclusive) and 12.6 µM (inconclusive)
